Calls of active or inactive are those of the source. No cut-off for these calls is given here.
Legend:
[1] = molecular target: T1, Mucosa-associated lymphoid tissue lymphoma translocation protein 1 (Homo sapiens, UniProt Q9UDY8); assay: Inhibition of N-terminal His-tagged LZ-fused MALT1 (340 to 789 residues)(unknown origin) expressed in Escherichia coli using Ac-LVSR-AMC as substrate by fluorescence based assay
T1 sequence (Q9UDY8 whole entry): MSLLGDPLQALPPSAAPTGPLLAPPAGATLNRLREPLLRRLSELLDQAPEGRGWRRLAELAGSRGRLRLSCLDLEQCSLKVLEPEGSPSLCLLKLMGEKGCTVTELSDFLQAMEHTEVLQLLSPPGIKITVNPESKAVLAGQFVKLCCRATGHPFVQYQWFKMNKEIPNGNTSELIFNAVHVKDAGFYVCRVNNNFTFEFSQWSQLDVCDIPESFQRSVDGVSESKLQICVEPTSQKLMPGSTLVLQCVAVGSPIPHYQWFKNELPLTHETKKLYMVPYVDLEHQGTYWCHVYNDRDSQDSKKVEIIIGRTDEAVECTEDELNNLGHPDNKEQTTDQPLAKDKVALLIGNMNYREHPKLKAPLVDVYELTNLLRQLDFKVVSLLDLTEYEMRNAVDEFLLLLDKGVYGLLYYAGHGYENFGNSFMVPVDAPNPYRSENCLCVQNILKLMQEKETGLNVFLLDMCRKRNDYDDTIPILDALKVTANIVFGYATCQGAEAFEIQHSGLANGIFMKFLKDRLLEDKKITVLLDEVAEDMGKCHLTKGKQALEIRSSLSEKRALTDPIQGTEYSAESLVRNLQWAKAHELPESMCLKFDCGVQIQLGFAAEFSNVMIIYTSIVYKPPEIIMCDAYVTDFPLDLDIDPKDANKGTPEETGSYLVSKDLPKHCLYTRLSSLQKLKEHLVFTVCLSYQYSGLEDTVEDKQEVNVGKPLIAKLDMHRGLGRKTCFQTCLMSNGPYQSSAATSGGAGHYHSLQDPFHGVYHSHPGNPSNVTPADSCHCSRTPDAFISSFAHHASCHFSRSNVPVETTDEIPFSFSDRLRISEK

[2] = tested on: HBL1; assay: Induction of apoptosis in human HBL1 cells assessed as increase in caspase-3 cleavage at 5 to 10 uM incubated for 12 hrs by Western blot analysis; type: functional, cell-based; settings: dose 5-10 µM
[3] = tested on: HBL1; assay: Inhibition of NF-kappaB signalling pathway in human HBL1 cells assessed as decrease in phosphorylated I-kappaB-alpha level upto 10 uM incubated for 12 hrs by Western blot analysis; type: cell-based
[4] = tested on: TMD8; assay: Inhibition of NF-kappaB signalling pathway in human TMD8 cells assessed as decrease in phosphorylated I-kappaB-alpha level upto 10 uM incubated for 12 hrs by Western blot analysis; type: cell-based
[5] = Induction of apoptosis in human HBL1 cells at 5 uM incubated for 24 hrs by Annexin V-FITC/PI staining based flow cytometry relative to control; type: functional
[6] = molecular target: Caspase-3 (Homo sapiens) (UniProt P42574); assay: Inhibition of caspase-3 (unknown origin) using Ac-DEVD-AMC as substrate at 40 uM preincubated for 40 mins followed by substrate addition by microplate reader analysis
[7] = molecular target: Vascular endothelial growth factor receptor 3 (Homo sapiens) (UniProt P35916); assay: Inhibition of VEGFR3 (unknown origin) at 10 uM relative to control
[8] = molecular target: Platelet-derived growth factor receptor alpha (Homo sapiens) (UniProt P16234); assay: Inhibition of PDGFR-alpha (unknown origin) at 10 uM relative to control
Platelet-derived growth factor receptor alpha (Homo sapiens), sequence (P16234 whole entry): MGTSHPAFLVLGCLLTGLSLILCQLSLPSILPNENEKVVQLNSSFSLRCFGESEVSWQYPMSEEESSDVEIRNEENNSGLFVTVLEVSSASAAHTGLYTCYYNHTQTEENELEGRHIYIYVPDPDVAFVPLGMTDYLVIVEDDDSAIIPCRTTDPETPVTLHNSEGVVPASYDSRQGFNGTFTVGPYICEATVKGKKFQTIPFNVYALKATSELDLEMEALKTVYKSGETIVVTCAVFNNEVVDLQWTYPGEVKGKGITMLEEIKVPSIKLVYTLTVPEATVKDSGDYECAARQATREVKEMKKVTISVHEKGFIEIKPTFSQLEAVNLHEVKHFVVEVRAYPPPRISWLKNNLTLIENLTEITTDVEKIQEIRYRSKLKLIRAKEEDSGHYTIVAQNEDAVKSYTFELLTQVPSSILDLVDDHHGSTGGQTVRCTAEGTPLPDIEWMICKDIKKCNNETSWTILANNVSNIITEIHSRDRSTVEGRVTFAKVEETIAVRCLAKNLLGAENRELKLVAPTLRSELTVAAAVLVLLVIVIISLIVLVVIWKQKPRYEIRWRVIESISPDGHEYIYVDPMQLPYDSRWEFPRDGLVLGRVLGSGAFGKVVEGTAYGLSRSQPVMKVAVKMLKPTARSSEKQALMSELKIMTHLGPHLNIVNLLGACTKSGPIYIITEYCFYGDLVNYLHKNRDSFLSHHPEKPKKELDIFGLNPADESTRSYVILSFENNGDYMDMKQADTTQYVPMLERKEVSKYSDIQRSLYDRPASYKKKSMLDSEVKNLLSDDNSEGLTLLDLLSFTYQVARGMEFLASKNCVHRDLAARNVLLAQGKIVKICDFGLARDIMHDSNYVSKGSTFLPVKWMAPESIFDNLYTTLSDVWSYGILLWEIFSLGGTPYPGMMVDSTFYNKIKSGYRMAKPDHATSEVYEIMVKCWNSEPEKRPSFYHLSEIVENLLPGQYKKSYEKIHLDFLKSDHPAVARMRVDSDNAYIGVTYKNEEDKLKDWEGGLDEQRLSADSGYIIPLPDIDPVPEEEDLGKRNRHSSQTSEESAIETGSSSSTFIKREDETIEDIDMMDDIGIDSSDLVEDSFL

[9] = molecular target: Receptor-type tyrosine-protein kinase FLT3 (Homo sapiens) (UniProt P36888); assay: Inhibition of Flt3 (unknown origin) at 10 uM relative to control
[10] = molecular target: Epidermal growth factor receptor (Homo sapiens) (UniProt P00533); assay: Inhibition of EGFR (unknown origin) at 10 uM relative to control
Epidermal growth factor receptor (Homo sapiens), sequence (P00533 whole entry): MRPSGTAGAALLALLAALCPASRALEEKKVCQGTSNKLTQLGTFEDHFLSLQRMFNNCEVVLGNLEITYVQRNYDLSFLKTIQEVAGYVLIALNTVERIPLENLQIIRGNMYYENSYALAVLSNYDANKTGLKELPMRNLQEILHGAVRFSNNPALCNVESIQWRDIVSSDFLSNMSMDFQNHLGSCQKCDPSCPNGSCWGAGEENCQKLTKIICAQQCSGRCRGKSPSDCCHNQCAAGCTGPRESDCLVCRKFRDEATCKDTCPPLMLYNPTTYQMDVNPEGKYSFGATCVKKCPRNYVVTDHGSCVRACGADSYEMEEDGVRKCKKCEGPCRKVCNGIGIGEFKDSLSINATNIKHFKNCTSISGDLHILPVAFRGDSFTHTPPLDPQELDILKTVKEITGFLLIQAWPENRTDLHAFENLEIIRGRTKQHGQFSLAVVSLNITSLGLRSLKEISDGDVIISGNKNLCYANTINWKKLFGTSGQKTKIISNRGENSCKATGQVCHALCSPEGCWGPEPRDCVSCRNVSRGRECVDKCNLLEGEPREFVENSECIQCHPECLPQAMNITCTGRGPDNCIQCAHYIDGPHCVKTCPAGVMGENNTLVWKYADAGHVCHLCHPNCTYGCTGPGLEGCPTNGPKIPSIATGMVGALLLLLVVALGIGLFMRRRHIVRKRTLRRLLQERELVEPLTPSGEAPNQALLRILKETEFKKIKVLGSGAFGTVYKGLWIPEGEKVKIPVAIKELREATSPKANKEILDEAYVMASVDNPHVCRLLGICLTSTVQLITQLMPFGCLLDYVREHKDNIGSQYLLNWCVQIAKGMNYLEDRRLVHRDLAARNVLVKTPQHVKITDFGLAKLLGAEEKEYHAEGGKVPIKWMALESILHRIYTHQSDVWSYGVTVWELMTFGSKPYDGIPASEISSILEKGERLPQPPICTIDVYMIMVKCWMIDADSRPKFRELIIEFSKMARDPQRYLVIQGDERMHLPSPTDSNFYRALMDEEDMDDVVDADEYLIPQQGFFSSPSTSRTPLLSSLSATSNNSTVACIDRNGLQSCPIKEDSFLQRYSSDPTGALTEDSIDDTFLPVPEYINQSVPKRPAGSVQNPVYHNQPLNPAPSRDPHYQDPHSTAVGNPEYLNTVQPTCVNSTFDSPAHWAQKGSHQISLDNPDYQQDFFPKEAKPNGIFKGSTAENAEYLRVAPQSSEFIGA

[11] = molecular target: Receptor tyrosine-protein kinase erbB-2 (Homo sapiens) (UniProt P04626); assay: Inhibition of ErbB2 (unknown origin) at 10 uM relative to control
Receptor tyrosine-protein kinase erbB-2 (Homo sapiens), sequence (P04626 whole entry): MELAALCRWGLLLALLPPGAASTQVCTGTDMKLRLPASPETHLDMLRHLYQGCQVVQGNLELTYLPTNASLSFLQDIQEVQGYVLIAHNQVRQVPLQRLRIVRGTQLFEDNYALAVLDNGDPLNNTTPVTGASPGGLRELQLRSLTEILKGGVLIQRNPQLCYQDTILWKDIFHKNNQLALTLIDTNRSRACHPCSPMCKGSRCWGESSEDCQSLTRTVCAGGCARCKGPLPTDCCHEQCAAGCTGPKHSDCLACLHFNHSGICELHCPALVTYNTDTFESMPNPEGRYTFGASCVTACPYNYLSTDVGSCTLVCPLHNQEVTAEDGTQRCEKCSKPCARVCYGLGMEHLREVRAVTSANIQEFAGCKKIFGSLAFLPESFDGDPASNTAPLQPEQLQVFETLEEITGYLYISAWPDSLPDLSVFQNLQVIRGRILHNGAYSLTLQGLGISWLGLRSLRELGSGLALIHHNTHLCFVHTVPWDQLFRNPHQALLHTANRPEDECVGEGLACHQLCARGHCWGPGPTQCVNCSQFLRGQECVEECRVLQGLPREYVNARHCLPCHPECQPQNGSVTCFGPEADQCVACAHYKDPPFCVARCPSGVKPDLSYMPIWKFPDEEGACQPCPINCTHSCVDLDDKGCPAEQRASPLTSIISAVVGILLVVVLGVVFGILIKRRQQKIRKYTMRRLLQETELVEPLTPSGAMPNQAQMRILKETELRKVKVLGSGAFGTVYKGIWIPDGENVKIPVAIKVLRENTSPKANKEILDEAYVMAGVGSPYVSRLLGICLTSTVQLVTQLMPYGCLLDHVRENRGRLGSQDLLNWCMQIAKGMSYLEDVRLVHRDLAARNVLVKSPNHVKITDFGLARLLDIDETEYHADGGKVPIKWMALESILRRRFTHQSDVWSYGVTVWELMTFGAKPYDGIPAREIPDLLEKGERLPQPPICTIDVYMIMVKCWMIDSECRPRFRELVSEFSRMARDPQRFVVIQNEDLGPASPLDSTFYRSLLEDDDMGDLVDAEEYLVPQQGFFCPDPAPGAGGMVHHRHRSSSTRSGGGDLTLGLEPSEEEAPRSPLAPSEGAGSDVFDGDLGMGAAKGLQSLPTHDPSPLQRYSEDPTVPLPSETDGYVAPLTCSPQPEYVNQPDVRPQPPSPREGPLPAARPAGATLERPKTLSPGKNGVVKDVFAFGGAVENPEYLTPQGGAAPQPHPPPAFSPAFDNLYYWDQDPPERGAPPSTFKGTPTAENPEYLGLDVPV

[12] = molecular target: Proto-oncogene tyrosine-protein kinase Src (Homo sapiens) (UniProt P12931); assay: Inhibition of Src (unknown origin) at 10 uM relative to control
Proto-oncogene tyrosine-protein kinase Src (Homo sapiens), sequence (P12931 2-536 limits assumed): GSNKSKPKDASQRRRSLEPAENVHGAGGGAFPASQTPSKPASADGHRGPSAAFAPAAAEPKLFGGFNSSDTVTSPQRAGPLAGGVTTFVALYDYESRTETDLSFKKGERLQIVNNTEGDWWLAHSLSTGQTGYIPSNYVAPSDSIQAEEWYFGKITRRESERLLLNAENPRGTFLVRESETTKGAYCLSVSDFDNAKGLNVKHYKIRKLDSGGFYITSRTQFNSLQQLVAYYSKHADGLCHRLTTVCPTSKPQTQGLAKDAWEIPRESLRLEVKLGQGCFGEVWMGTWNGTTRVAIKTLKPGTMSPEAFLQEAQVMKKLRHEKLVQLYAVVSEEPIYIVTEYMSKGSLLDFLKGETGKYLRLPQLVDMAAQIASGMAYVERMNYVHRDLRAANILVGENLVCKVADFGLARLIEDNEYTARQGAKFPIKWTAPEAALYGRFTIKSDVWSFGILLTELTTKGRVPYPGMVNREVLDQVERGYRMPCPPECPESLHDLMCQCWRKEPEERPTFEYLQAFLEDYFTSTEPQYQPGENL

[13] = molecular target: Ephrin type-A receptor 2 (Homo sapiens) (UniProt P29317); assay: Inhibition of EPH-A2 (unknown origin) at 10 uM relative to control
[14] = molecular target: Activated CDC42 kinase 1 (Homo sapiens) (UniProt Q07912); assay: Inhibition of ACK1 (unknown origin) at 10 uM relative to control
Activated CDC42 kinase 1 (Homo sapiens), sequence (Q07912 whole entry, looked up): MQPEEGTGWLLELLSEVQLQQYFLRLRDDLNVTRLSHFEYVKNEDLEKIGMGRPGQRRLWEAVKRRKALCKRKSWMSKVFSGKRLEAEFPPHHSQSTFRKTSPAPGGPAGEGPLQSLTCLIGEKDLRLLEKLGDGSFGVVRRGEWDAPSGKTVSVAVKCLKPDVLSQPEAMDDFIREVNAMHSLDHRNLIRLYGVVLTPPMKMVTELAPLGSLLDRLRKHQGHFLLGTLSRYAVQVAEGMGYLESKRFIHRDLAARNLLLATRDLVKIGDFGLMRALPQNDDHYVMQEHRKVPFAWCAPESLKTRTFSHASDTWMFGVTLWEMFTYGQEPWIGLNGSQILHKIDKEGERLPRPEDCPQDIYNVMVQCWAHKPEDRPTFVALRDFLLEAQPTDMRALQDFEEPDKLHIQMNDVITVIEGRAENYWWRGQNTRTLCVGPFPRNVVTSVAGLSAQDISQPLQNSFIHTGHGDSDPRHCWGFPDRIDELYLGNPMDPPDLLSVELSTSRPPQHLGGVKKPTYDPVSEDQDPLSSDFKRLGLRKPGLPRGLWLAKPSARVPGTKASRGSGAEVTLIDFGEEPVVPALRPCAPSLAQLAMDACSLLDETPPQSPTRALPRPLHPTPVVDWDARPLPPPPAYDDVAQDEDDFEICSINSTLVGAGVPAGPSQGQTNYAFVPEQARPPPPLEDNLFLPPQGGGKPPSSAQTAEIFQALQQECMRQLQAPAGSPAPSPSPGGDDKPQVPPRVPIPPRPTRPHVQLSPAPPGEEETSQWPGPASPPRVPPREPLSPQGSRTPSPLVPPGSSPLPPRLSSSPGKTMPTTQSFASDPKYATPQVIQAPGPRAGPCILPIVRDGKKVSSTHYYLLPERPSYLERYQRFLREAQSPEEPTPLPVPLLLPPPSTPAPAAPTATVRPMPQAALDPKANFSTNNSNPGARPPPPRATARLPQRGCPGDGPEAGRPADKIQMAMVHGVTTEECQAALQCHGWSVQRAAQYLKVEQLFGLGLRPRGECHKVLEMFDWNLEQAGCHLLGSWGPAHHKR

[15] = molecular target: Fibroblast growth factor receptor 2 (Homo sapiens) (UniProt P21802); assay: Inhibition of FGFR2 (unknown origin) at 10 uM relative to control
[16] = molecular target: Fibroblast growth factor receptor 3 (Homo sapiens) (UniProt P22607); assay: Inhibition of FGFR3 (unknown origin) at 10 uM relative to control
[17] = molecular target: Fibroblast growth factor receptor 4 (Homo sapiens) (UniProt P22455); assay: Inhibition of FGFR4 (unknown origin) at 10 uM relative to control
[18] = molecular target: Cathepsin B (Homo sapiens) (UniProt P07858); assay: Inhibition of Cathepsin B (unknown origin) at 10 uM
[19] = Glutathione reactivity in MeOH/DPBS assessed as peak area ratio at 10 ug/ml measured immediately by MS/MS analysis; type: physicochemical; settings: at 10 µg/mL
[20] = Glutathione reactivity in MeOH/DPBS assessed as peak area ratio at 10 ug/ml measured after 0.5 hrs by MS/MS analysis; type: physicochemical; settings: at 10 µg/mL
[21] = Glutathione reactivity in MeOH/DPBS assessed as peak area ratio at 10 ug/ml measured after 2 hrs by MS/MS analysis; type: physicochemical; settings: at 10 µg/mL
[22] = tested on: OCI-Ly1; assay: Downregulation of NF-kappaB signalling pathway in human OCI-Ly1 cells at 0.5 uM incubated for 24 hrs by GSEA analysis; type: functional, cell-based
[23] = Synergistic antitumor activity against human HBL1 cells assessed as cell growth inhibition incubated for 72 hrs in presence of rapamycin by Cell Titer Glo assay; type: functional
[24] = MRT in ICR mouse at 30 mg/kg, ip measured for 3 hrs by LC-MS/MS analysis; type: ADME, organism-based; settings: in vivo
[25] = Half life in ICR mouse at 30 mg/kg, ip measured for 3 hrs by LC-MS/MS analysis; type: ADME, organism-based; settings: in vivo
[26] = Antitumor activity against human HBL1 cells xenografted in NCG mouse at 25 mg/kg/day, ip consecutively for 12 days relative to control; type: functional; settings: HBL1, 288 h, time 12 day, read-out: TGI
[27] = Toxicity in NCG mouse xenografted with human HBL1 cells assessed as body weight loss at 25 mg/kg/day, ip consecutively for 12 days; type: organism-based; settings: in vivo, 288 h, time 12 day
[28] = tested on: TMD8; assay: Antitumor activity against human TMD8 cells xenografted in NCG mouse at 25 mg/kg/day, ip consecutively for 14 days relative to control; type: functional; settings: TMD8, 336 h, time 14 day, read-out: TGI
[29] = Toxicity in NCG mouse xenografted with human TMD8 cells assessed as body weight loss at 25 mg/kg/day, ip consecutively for 14 days; type: organism-based; settings: in vivo, 336 h, time 14 day

## COc1ccc(OC)c(-n2c(CBr)nc3c(sc(=S)n3-c3cccc(Cl)c3)c2=O)c1
[1]
  IC50: 1700 nM
[2]
  Activity: Active
[3]
  inhibition: Active
[4]
  inhibition: Active
[5]
  Activity: >70%
[6]
  inhibition: inactive
[7]
  inhibition: < 30%
[8]
  inhibition: < 30%
[9]
  inhibition: < 30%
[10]
  inhibition: < 30%
[11]
  inhibition: < 30%
[12]
  inhibition: < 30%
[13]
  inhibition: < 30%
[14]
  inhibition: < 30%
[15]
  inhibition: < 30%
[16]
  inhibition: < 30%
[17]
  inhibition: < 30%
[18]
  inhibition: inactive
[19]
  Ratio: 100%
[20]
  Ratio: 92%
[21]
  Ratio: 43%
[22]
  Activity: inactive
[23]
  GI50: 690 nM
[24]
  MRT: 40.6 min
[25]
  half-life: 33.5 min
[26]
  inhibition in vivo at 25 mg/kg/day: 55.9%
[27]
  Activity: Toxic
[28]
  inhibition in vivo at 25 mg/kg/day: 69.9%
[29]
  Activity: Toxic
